Test results as given in US8101740B2, “Positron emission tomography probes for imaging immune activation and selected cancers” (The Regents of the University of California, priority 2007, dated 2012).

Legend:
human U87 cells = experiment: microPET/CT of implanted U87 glioma; assay type: in vivo, SCID mice; conditions: imaged 10 days after 1×10^6 cells subcutaneously
Experimental: (§1) In addition to immune diseases, [^18F]D-FAC may also be used to measure dysregulated nucleoside metabolism in cancer. To this end, we examined the utility of [^18F]D-FAC microPET in animal models representative of leukemia or lymphoma, melanoma, and glioma tumors (FIG. 12, where the images are 1 mm coronal sections from [^18F]D-FAC microPET/CT scans 1 hr after probe injection). In FIG. 12A, SCID mice were injected intravenously with Ba/F3 cells expressing p210 BCR-ABL and go on to develop aggressive disease with massive splenic infiltration that typically results in death within ˜15 days (mice shown were imaged on day 12). In FIG. 12B, the NOD SCID mice were transplanted with wild type total bone marrow cells infected with MSCV-GFP-IRES-P185 BCR-ABL retroviral stocks and the leukemic mice were imaged 28 days following transplantation. In FIG. 12C, C57BL/6 was injected subcutaneously with 1×10^5 B16 melanoma cells and imaged 7 days later. In FIG. 12D, SCID mice were injected subcutaneously with 1×10^6 U87 glioma cells and imaged 10 days later. […] [^18F]D-FAC PET also detected implanted murine B16 cells (representative of malignant melanoma) and human U87 cells (representative of glioma tumors). […]

[1] = system: Bcr-Abl-expressing Ba/F3 cells and Bcr-Abl transformed bone marrow; experiment: microPET/CT of Bcr-Abl oncogene-induced leukemia models; assay type: in vivo, mouse; conditions: 1 hr after probe injection
Experimental: as §1, with “later.” for “later. In FIG. 12D, SCID mice were injected subcutaneously with 1×10^6 U87 glioma cells and imaged 10 days later.”
Six to 8 week old mice with severe combined immunodeficiency (NOD SCID) were sublethally irradiated (275 rads) one day prior to reconstitution. […] Animals were monitored daily for signs of illness during a period of two months as previously described^10. […]

lymphoma lesion = experiment: PET scan of human subject with lymphoma lesion; assay type: in vivo; conditions: coronal PET image
Source text: FIG. 29 presents PET scan images of a human subject after injection of [^18F]D-FAC. […] The heterogeneous spleen 292 is visible.

[2] = probe accumulation in necropsy tissue of mouse strains incl. BDC-2.5 (type 1 diabetes model); assay type: in vivo, BDC-2.5 mice; conditions: necropsy tissue samples
Source text: Elevated retention of the [^18F]D-FAC probe in joints and the intestine over physiologic uptake values may reflect the presence of an active inflammatory processes that is characteristic of rheumatoid arthritis and inflammatory bowel disease, respectively. [^18F]D-FAC microPET can also be used to detect overt autoreactive immune activation in a BDC-2.5 mouse model that is prone to type 1 diabetes (FIG. 8). In FIG. 8A, the 1 mm coronal sections illustrate the pattern of [^18F]D-FAC probe accumulation in BDC-2.5 mice. (Abbreviations: CV, cervical LNs; AX, axillary LNs; BR, brachial LNs; IN, inguinal LNs; THY, Thymus; GI, Gastrointestinal tract; H, heart.) In FIG. 8B, [^18F]D-FAC accumulation is measured in necropsy tissue samples from BL/6, BALB/c, NOD LTJ, and BDC-2.5 mice.
FIG. 8 presents the results of microPET/CT imaging performed on BDC-2.5 T cell receptor transgenic mice injected with the [^18F]D-FAC probe. The BDC-2.5 strain is a well-established animal model for type I (autoimmunity-based) diabetes. In FIG. 8A, the 1 mm coronal sections illustrate the pattern of the [^18F]D-FAC probe accumulation in BDC-2.5 mice. (Abbreviations: CV, cervical LNs; AX, axillary LNs; BR, brachial LNs; IN, inguinal LNs; THY, Thymus; GI, Gastrointestinal tract; H, heart.) In FIG. 8B, [^18F]D-FAC accumulation is measured in necropsy tissue samples from BL/6, BALB/c, NOD Ltj and BDC-2.5 mice. […]

Question: Which “detection of implanted tumor cells by PET” value (human U87 cells) does the source give for Nc1ccn([C@@H]2O[C@H](CO)[C@@H](O)[C@@H]2[18F])c(=O)n1 [[^18F]D-FAC, 1-(2′-deoxy-2′-[^18F]fluoro-β-D-arabinofuranosyl)cytosine] here?
Answer: Its value is “detected”.

Question: What about the “retention in the spleen” value [1] of the same compound?
Answer: Its value is “increased”.

Question: What about the “concentration in lymph node” value (lymphoma lesion) of the same compound?
Answer: The value was “high concentration”.

Question: And the route of clearance (dynamic microPET/CT time-activity curves)?
Answer: Its route of clearance is “predominantly cleared through the kidney”.

Question: And the “retention in the brain and the myocardium” value (mouse, in vivo)?
Answer: Its value is “low retention”.

Question: What about the “organs with accumulated radioactivity” value (one hour after intravenous injection) of the same compound?
Answer: Its value is “thymus, spleen, intestine, bone/bone marrow and, to a lesser extent, in the liver”.

Question: And the “Spleen, % ID/g per organ normalized to % ID/g muscle” value (spleen, 60 min after intravenous injection, 3 mice)?
Answer: Its value is 2.16 +/− 0.48 % ID/g per organ normalized to % ID/g muscle.

Question: And the “Thymus, % ID/g per organ normalized to % ID/g muscle” value (thymus, 60 min after intravenous injection, 3 mice)?
Answer: The value was 3.29 +/− 0.48 % ID/g per organ normalized to % ID/g muscle.

Question: And the “accumulation in spleen and lymph nodes among BL/6, BALB/c, NOD Ltj and BDC-2.5 mice” value [2]?
Answer: The value was “highest levels”.
